From publication PMC7702721 (The AAPS journal, 2016)
Read-outs that look alike come from different tables or passages of the source. Blank lines part the entries; values can stand above or below the compound they belong to.

How the values were obtained:
[1] = Pharmacokinetic study in rats after oral administration of kaempferol; format: in vivo, Sprague–Dawley (SD) rats; details: for AUC0-t / Cmax / MRT0-t / Tmax / AUC0−∞ / MRT last: plasma; for AUC0−∞: predicted AUC
[2] = format: in vivo, FVB mice; details: oral kaempferol 10 mg/kg; for fold higher plasma Cmax and AUC0-t in absence of Bcrp versus wild-type: Bcrp1^−/− vs wild-type FVB mice
Caco-2 monolayer [3] = assay: Bidirectional efflux of kaempferol-glucuronides across the Caco-2 monolayer; format: in vitro ADME; details: 10 μM kaempferol loaded AP or BL, 2 h
[4] = rat, in vivo
[5] = In situ four-site rat intestinal perfusion of kaempferol
[6] = tested on: rat hepatic and segmental intestinal preparations; assay: Kaempferol glucuronidation via rat hepatic and segmental intestinal microsomes; format: in vitro ADME, SD rats
[7] = tested on: hepatic and intestinal S9 fractions; format: in vitro ADME, FVB mice; details: kaempferol 1.25 μM
[8] = tested on: hepatic and intestinal S9 fractions; format: in vitro ADME, FVB mice; details: kaempferol 0.125 μM
[9] = tested on: rat hepatic and segmental intestinal preparations; assay: Kaempferol sulfation via rat hepatic and segmental intestinal S9 fraction; format: in vitro ADME, SD rats; details: kaempferol 0.125, 0.5 and 1.25 μM, S9 fraction 0.02 mg/mL
[10] = ref [20]; cited from earlier work
Caco-2 monolayer [11] = assay: Transporter inhibition experiments in the Caco-2 monolayer; details: kaempferol 10 μM
[12] = male SD rats, oral kaempferol 10 mg/kg, n = 6
[13] = male SD rats, oral kaempferol 20 mg/kg, n = 6
[14] = perfusion with 5 μM or 20 μM kaempferol
[15] = male, Sprague-Dawley, rat, po, 10 mg/kg
[16] = male, Sprague-Dawley, rat, po, 20 mg/kg

- AUC0-t [1, 12]: (1.74 ± 0.47) ×10^3 min•μmol/L
- Cmax [1, 12]: 24.6 ± 7 µM
- MRT0-t [1, 12]: 1.48 ± 0.233 h
- Tmax [1, 12]: 0.333 ± 0.148 h
- AUC0-t [1, 13]: (2.79 ± 0.33) ×10^3 min•μmol/L
- Cmax [1, 13]: 30.9 ± 5.5 µM
- MRT0-t [1, 13]: 1.9 ± 0.467 h
- Tmax [1, 13]: 0.4 ± 0.0917 h
- AUC0−∞ [1, 12]: (1.76 ± 0.46) ×10^3 min•μmol/L
- AUC0−∞ [1, 13]: (2.81 ± 0.33) ×10^3 min•μmol/L
- AUC of K-3-G, times higher than that of K-7-G ([1]; rats, 10 mg/kg kaempferol): five
- AUC of K-3-G, times higher than that of K-7-S ([1]; rats, 10 mg/kg kaempferol): four
- Cmax and AUC of K-3-G relative to K-7-G ([1]; rats, oral kaempferol): threefold to fivefold higher
- AUC0-t ([2]; Bcrp1^−/− FVB mice): 848 ± 123 µmol·min/L
- Cmax ([2]; Bcrp1^−/− FVB mice): 18 ± 6.4 µM
- MRT ([2]; Bcrp1^−/− FVB mice): 1.62 ± 0.362 h
- fold higher plasma Cmax and AUC0-t in absence of Bcrp versus wild-type [2]: ~ 2 fold
- AUC0-t ([2]; Mdr1a^−/− FVB mice): 143 ± 83 µmol·min/L
- Cmax ([2]; Mdr1a^−/− FVB mice): 4.62 ± 1.14 µM
- MRT ([2]; Mdr1a^−/− FVB mice): 1.88 ± 1.18 h
- AUC0-t ([2]; Mrp1^−/− FVB mice): 38.0 ± 29.1 µmol·min/L
- Cmax ([2]; Mrp1^−/− FVB mice): 1.75 ± 1.18 µM
- MRT ([2]; Mrp1^−/− FVB mice): 0.557 ± 0.332 h
- AUC0-t ([2]; Mrp2^−/− FVB mice): (1.28 ± 0.27) ×10^3 min•μmol/L
- Cmax ([2]; Mrp2^−/− FVB mice): 32.3 ± 9.7 µM
- MRT ([2]; Mrp2^−/− FVB mice): 1.51 ± 0.183 h
- AUC0-t ([2]; wild-type FVB mice): 365 ± 195 µmol·min/L
- Cmax ([2]; wild-type FVB mice): 8.92 ± 1.69 µM
- MRT ([2]; wild-type FVB mice): 1.72 ± 0.483 h
- efflux toward the BL side compared with that toward the AP side (Caco-2 monolayer [3]): approximately six times higher
- detection in plasma during perfusion [4]: detected in plasma
SMILES: O=C(O)[C@H]1O[C@@H](Oc2c(-c3ccc(O)cc3)oc3cc(O)cc(O)c3c2=O)[C@H](O)[C@@H](O)[C@@H]1O [K-3-G, kaempferol-3-glucuronide]
- regional excretion of metabolite in the perfusate [5, 14]: highest excretion in duodenum and jejunum and the lowest excretion in colon

- AUC0-t [1, 12]: 310 ± 95 µmol·min/L
- Cmax [1, 12]: 5.29 ± 2.97 µM
- MRT0-t [1, 12]: 2.1 ± 0.617 h
- Tmax [1, 12]: 0.292 ± 0.0833 h
- AUC0-t [1, 13]: 802 ± 231 µmol·min/L
- Cmax [1, 13]: 9.55 ± 3.37 µM
- MRT0-t [1, 13]: 2.17 ± 0.717 h
- Tmax [1, 13]: 0.267 ± 0.0917 h
- AUC0−∞ [1, 12]: 314 ± 96 µmol·min/L
- AUC0−∞ [1, 13]: 811 ± 311 µmol·min/L
- AUC0-t ([2]; Bcrp1^−/− FVB mice): 464 ± 234 µmol·min/L
- Cmax ([2]; Bcrp1^−/− FVB mice): 14.9 ± 3.6 µM
- MRT ([2]; Bcrp1^−/− FVB mice): 0.757 ± 0.372 h
- fold higher plasma Cmax and AUC0-t in absence of Bcrp versus wild-type [2]: > 4 fold
- AUC0-t ([2]; Mdr1a^−/− FVB mice): 63.1 ± 15.3 µmol·min/L
- Cmax ([2]; Mdr1a^−/− FVB mice): 1.12 ± 0.68 µM
- MRT ([2]; Mdr1a^−/− FVB mice): 4.07 ± 0.367 h
- AUC0-t ([2]; Mrp1^−/− FVB mice): 13.9 ± 12.0 µmol·min/L
- Cmax ([2]; Mrp1^−/− FVB mice): 0.839 ± 0.853 µM
- MRT ([2]; Mrp1^−/− FVB mice): 0.43 ± 0.277 h
- AUC0-t ([2]; Mrp2^−/− FVB mice): 392 ± 78 µmol·min/L
- Cmax ([2]; Mrp2^−/− FVB mice): 14.3 ± 4.8 µM
- MRT ([2]; Mrp2^−/− FVB mice): 1.52 ± 0.302 h
- AUC0-t ([2]; wild-type FVB mice): 114 ± 79 µmol·min/L
- Cmax ([2]; wild-type FVB mice): 2.91 ± 1.94 µM
- MRT ([2]; wild-type FVB mice): 1.36 ± 0.57 h
- glucuronide formation by liver microsomes, K-7-G versus K-3-G ([6]; rat liver microsomes): more K-7-G than K-3-G
- efflux toward the BL side compared with that toward the AP side (Caco-2 monolayer [3]): not more than twice higher
SMILES: O=C(O)[C@H]1O[C@@H](Oc2cc(O)c3c(=O)c(O)c(-c4ccc(O)cc4)oc3c2)[C@H](O)[C@@H](O)[C@@H]1O [K-7-G, kaempferol-7-glucuronide]
- amount of K-7-G in the perfusate compared with K-3-G ([5]; 20 μM perfusion): slightly higher than that of K-3-G in duodenum and jejunum, but was significantly higher in ileum and colon
- regional excretion of metabolite in the perfusate [5, 14]: highest excretion in duodenum and jejunum and the lowest excretion in colon

- Cmax [1, 15]: 0.332 ± 0.085 µM
- MRT last [1, 15]: 17.5 h
- Tmax [1, 15]: 18.7 h
- Cmax [1, 16]: 0.703 ± 0.296 µM
- MRT last [1, 16]: 18.2 h
- Tmax [1, 16]: 15.2 h
- AUC0-t [1, 12]: 454 ± 90 µmol·min/L
- AUC0-t [1, 13]: (1.15 ± 0.22) ×10^3 min•μmol/L
- AUC0−∞ [1, 12]: 536 ± 164 µmol·min/L
- AUC0−∞ [1, 13]: (1.65 ± 0.56) ×10^3 min•μmol/L
- time after dose at which still detected in plasma ([1]; rats, oral kaempferol): 36 h
- AUC0-t ([2]; Bcrp1^−/− FVB mice): 156 ± 55 µmol·min/L
- AUC0-t ([2]; Mdr1a^−/− FVB mice): 36.7 ± 37.0 µmol·min/L
- AUC0-t ([2]; Mrp1^−/− FVB mice): 6.72 ± 5.83 µmol·min/L
- AUC0-t ([2]; Mrp2^−/− FVB mice): 102 ± 10 µmol·min/L
- Cmax ([2]; male, FVB, mouse, plasma, po, 10 mg/kg, Cmax, wild-type FVB mice): 0.301 ± 0.185 µM
- MRT ([2]; male, FVB, mouse, plasma, po, 10 mg/kg, MRT, wild-type FVB mice): 2.75 h
- AUC0-t ([2]; wild-type FVB mice): 49.5 ± 38.6 µmol·min/L
SMILES: O=c1c(O)c(-c2ccc(O)cc2)oc2cc(OS(=O)(=O)O)cc(O)c12 [K-7-S, kaempferol-7-sulfate]
- regional excretion of metabolite in the perfusate [5, 14]: highest excretion in colon and lowest excretion in ileum

- Cmax [1, 15]: 0.305 ± 0.106 µM
- MRT last [1, 15]: 0.437 h
- Tmax [1, 15]: 0.445 h
- Cmax [1, 16]: 0.647 ± 0.244 µM
- MRT last [1, 16]: 2.47 h
- Tmax [1, 16]: 0.3 h
- AUC0-t [1, 12]: 10.3 ± 3.8 µmol·min/L
- AUC0-t [1, 13]: 51.8 ± 17.2 µmol·min/L
- AUC0−∞ [1, 12]: 11.4 ± 3.7 µmol·min/L
- AUC0−∞ [1, 13]: 57.9 ± 13.6 µmol·min/L
- Cmax of kaempferol, times lower than that of K-3-G ([1]; rats, oral kaempferol): approximately 50 times
- Cmax of kaempferol, times lower than that of K-7-G ([1]; rats, oral kaempferol): ~16 times
- time to reach Cmax ([1]; rats, oral kaempferol): ≤ 30 min
- free kaempferol plasma concentration (below LLOQ) ([2]; at most periods, all strains of mice): < 3.9 nM
- increase of glucuronidation rate versus wild-type ([7]; liver S9, Bcrp1^−/− mice): 32%
- decrease of hepatic glucuronidation rate versus wild-type ([7]; liver S9, Mdr1a^−/− mice): ~30%
- decrease of hepatic glucuronidation rate versus wild-type ([7]; liver S9, Mrp1^−/− mice): ~ 26%
- decrease of hepatic glucuronidation rate versus wild-type ([7]; liver S9, Mrp2^−/− mice): ~ 11%
- decrease of sulfation rate versus wild-type ([8]; intestine S9, Mdr1a^−/− mice): ~47%
- decrease of sulfation rate versus wild-type ([8]; intestine S9, Mrp1^−/− mice): ~ 25%
- decrease of sulfation rate versus wild-type ([8]; intestine S9, Mrp2^−/− mice): ~79%
- decrease of sulfation rate versus wild-type ([8]; liver S9, Mdr1a^−/− mice): ~39%
- decrease of sulfation rate versus wild-type ([8]; liver S9, Mrp1^−/− mice): ~ 11%
- decrease of sulfation rate versus wild-type ([8]; liver S9, Mrp2^−/− mice): ~59%
- sulfation reaction rates by tissue [9]: highest reaction rates in liver
SMILES: O=c1c(O)c(-c2ccc(O)cc2)oc2cc(O)cc(O)c12 [Kaempferol, 3,4′,5,7-trihydroxyflavone]
- glucuronidation rates by segment ([6]; kaempferol 1.25, 2.5 and 10 μM, microsomes 0.00318 mg/mL): high and low glucuronidation rates were observed in the small intestine and colon, respectively
- bioavailability [10]: lower than 2%
- regional absorption of kaempferol [5, 14]: faster absorption in colon than in jejunum and ileum

SMILES: COc1ccc2c3c([nH]c2c1)[C@H](CC(C)C)N1C(=O)[C@H](CCC(=O)OC(C)(C)C)NC(=O)[C@@H]1C3 [Ko143]
- effect on bidirectional efflux rates and Fmet of the two glucuronides (Caco-2 monolayer [11]; Ko143 10 μM): significantly decreased
- effect on efflux rates and Fmet of K-7-S (Caco-2 monolayer [11]; Ko143 10 μM): No statistical differences

SMILES: CCCCC/C=C\C\C=C/C=C/C=C/[C@@H](SC[C@H](NC(=O)CC[C@H](N)C(=O)O)C(=O)NCC(=O)O)[C@@H](O)CCCC(=O)O [LTC4]
- effect on Fmet (BL to AP) of the three metabolites (Caco-2 monolayer [11]; LTC4 0.1 μM): decreased
- effect on intracellular amounts of K-3-G and K-7-G (AP to BL) (Caco-2 monolayer [11]; LTC4 0.1 μM): significantly increased
- effect on amounts of the three metabolites in the AP side (Caco-2 monolayer [11]; LTC4 0.1 μM, except K-7-S (AP to BL)): reduced

SMILES: CN(C)C(=O)CCSC(SCCC(=O)O)c1cccc(/C=C/c2ccc3ccc(Cl)cc3n2)c1 (stereo not drawn) [MK571]
- effect on intracellular amounts of the three metabolites (Caco-2 monolayer [11]; MK571 10 μM): did not significantly influence
- effect on the three metabolites transported into BL side (Caco-2 monolayer [11]; MK571 10 μM): dramatically reduced
- effect on efflux rates of the three metabolites toward the BL side (Caco-2 monolayer [11]; MK571 10 μM, except K-7-G (AP to BL)): significantly lowered
